What was measured:
[1] = molecular target: human platelet rich plasma (Homo sapiens, UniProt P05106+P08514); test: Platelet Aggregation Assay, ester prodrugs preincubated with porcine liver esterase; format: cell-based; conditions: platelet rich plasma (PRP)
Method: Aliquots are then diluted in 0.1 M Tris, pH 7.4, to the desired concentrations. Aliquots of 20 µl of the esterase pretreated prodrugs are added to 200 µl of human platelet rich plasma. […] Platelet aggregation was allowed to proceed for 5 minutes. Percent inhibition is calculated using percent aggregation in the presence of the test compound divided by percent aggregation of control, times 100. This value is subtracted from 100, yielding percent inhibition. Calculation of IC50 is performed on a Texas Instruments TI59 with an IC50 program.

[2] = molecular target: agonist-induced platelet aggregation (Homo sapiens, UniProt P05106+P08514); test: Platelet Aggregation Assay in platelet-rich plasma (PRP); format: cell-based; conditions: without esterase
Sequence of agonist-induced platelet aggregation (P08514 with tags, fused parts or gaps): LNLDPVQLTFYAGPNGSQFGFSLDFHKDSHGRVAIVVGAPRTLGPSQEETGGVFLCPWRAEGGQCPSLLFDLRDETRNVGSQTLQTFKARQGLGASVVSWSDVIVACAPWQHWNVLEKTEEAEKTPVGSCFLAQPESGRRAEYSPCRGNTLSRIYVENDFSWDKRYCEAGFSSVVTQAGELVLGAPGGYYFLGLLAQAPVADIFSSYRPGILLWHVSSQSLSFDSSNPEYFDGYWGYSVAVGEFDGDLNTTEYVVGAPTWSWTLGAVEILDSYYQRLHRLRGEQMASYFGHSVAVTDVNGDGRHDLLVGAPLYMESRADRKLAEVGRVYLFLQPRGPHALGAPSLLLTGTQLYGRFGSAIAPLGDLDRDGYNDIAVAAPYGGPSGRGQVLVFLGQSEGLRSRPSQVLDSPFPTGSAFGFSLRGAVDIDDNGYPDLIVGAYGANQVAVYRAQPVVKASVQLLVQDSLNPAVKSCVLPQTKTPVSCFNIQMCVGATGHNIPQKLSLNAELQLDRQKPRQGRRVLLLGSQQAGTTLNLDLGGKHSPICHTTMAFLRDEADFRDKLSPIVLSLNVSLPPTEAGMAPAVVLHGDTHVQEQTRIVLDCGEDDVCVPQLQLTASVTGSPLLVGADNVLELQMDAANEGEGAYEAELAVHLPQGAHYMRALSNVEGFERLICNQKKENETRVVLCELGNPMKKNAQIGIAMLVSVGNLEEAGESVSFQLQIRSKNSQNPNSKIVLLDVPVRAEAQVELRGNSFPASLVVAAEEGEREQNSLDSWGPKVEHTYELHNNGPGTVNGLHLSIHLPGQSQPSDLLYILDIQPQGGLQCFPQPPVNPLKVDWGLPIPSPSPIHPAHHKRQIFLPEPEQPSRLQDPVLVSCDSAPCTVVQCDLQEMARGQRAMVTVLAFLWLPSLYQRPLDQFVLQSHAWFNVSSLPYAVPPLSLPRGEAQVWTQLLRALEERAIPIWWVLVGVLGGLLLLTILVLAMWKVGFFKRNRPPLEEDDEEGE
Sequence of agonist-induced platelet aggregation (P05106 27-788): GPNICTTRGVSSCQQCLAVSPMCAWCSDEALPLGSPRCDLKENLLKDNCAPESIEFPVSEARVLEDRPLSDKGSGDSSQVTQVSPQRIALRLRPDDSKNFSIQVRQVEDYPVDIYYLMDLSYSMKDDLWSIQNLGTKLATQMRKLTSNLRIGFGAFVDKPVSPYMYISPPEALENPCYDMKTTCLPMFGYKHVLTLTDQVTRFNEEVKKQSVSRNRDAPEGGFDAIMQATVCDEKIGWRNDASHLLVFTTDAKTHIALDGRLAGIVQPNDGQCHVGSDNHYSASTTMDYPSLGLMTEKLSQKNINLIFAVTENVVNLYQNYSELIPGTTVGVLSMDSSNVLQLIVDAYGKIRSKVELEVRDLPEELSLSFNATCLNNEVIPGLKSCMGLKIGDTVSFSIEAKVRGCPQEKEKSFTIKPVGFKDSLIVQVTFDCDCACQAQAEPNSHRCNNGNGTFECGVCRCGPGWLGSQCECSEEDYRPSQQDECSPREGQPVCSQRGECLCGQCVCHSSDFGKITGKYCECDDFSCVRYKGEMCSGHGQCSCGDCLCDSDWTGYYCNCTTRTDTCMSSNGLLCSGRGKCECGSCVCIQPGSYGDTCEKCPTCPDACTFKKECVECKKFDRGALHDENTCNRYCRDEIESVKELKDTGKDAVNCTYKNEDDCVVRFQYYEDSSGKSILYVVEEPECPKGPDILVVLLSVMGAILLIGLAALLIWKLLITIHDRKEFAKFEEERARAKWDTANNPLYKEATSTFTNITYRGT
Method: Platelet Aggregation Assay: Venous blood was obtained from the arm of a healthy human donor who was drug-free and aspirin-free for at least two weeks prior to blood collection. Blood was collected into 10 ml citrated Vacutainer tubes. The blood was centrifuged for 15 minutes at 150 x g at room temperature, and platelet-rich plasma (PRP) was removed. The remaining blood was centrifuged for 15 minutes at 1500 x g at room temperature, and platelet-poor plasma (PPP) was removed. Samples were assayed on a aggregometer (PAP-4 Platelet Aggregation Profiler), using PPP as the blank (100% transmittance). 200 µl of PRP was added to each micro test tube, and transmittance was set to 0%. 20 µ of various agonists (ADP, collagen, arachidonate, epinephrine, thrombin) were added to each tube, and the aggregation profiles were plotted (% transmittance versus time). The results are expressed as % inhibition of agonist-induced platelet aggregation. For the IC50 evaluation, the test compounds were added at various concentrations prior to the activation of the platelets.
Table A below sets forth the antiplatelet activity of representative compounds of the present invention. The indicated compounds were tested for their ability to inhibit platelet aggregation (using platelet rich plasma (PRP)). […]

Sequence of human platelet rich plasma (P08514 with tags, fused parts or gaps): as the sequence (P08514 with tags, fused parts or gaps) above
Sequence of human platelet rich plasma (P05106 27-788): as the sequence (P05106 27-788) above

Molecule	IC50 [1] [µM]	IC50 [2] [µM]
Methyl N^2-(m-toluenesulfonyl)-N^3-[3-(3-amidinopyrid-6-yl)isoxazolin-5-ylacetyl]-S-2,3-diaminopropionate bis hydrochloric acid salt [Example 514]	< 10	–
COC(=O)C(CNC(=O)CC1CC(c2ccc(C(=N)N)cc2)=NO1)NC(=O)c1ccc(-c2ccccc2)cc1 (stereo not shown) [Example 523]	< 10	–
Methyl N^2-(m-toluenesulfonyl)-N^3-[3-(2-amidinopyrid-5-yl)isoxazolin-5-ylacetyl]-S-2,3-diaminopropionate bis hydrochloric acid salt [Example 516]	< 10	–
Methyl N^2-(n-butyloxycarbonyl)-N^3-[3-(2-amidinopyrid-5-yl) isoxazolin-5-ylacetyl]-S-2,3-diaminopropionate bis hydrochloric acid salt [Example 515]	< 10	–
COC(=O)C(CNC(=O)CC1CC(c2ccc(C(=N)N)cc2)=NO1)NS(=O)(=O)c1ccc(-c2ccccc2)cc1 (stereo not shown) [Example 546]	< 10	–
O=C(O)CCCN1C(=O)CC2(CC(CCCC3CCNCC3)=NO2)C1=O (stereo not shown) [Example 373]	–	10 to 50
Methyl N^2-(n-butyloxycarbonyl)-N^3-[3-(3-amidinopyrid-6-yl) isoxazolin-5-ylacetyl]-S-2,3-diaminopropionate bis hydrochloric acid salt [Example 513]	< 10	–

Reference: patent EP0730590B1, “ISOXAZOLINE AND ISOXAZOLE FIBRINOGEN RECEPTOR ANTAGONISTS” (Dupont Pharmaceuticals Company, priority 1993, dated 1995)
